The values that follow come from patent publication US20250213561A1, “SELECTIVE HYPOTHALAMUS PERMEABLE HDAC6 INHIBITORS FOR TREATMENT OF LEPTIN-RESISTANT OBESITY” (The Children’s Medical Center Corporation, priority 2022, published 2025).

The subject of series [1] is DIO mice. In words: Chronic treatment of DIO mice (body weight, food intake, DEXA, glucose homeostasis). Type of series: in vivo. Particulars: high fat diet induced mice. As for the experimental part: DIO mice were treated with ACY775 (10 mg/kg/day, i.p.) for 3 weeks. Daily body weight (g) of DIO mice treated with vehicle (n=17) or ACY775 (n=17) during 3 weeks of treatment was determined. Daily food intake (g) during 3 weeks of vehicle or ACY775 treatment was assessed. 24 hours' food intake per mouse during the first week of vehicle or ACY775 treatment was determined. Serum leptin (ng/ml) levels after 3 weeks of vehicle (n=24) or ACY775 (n=24) treatment was assessed. Lean mass (g), fat mass (g) and fat percentage (%) after 3 weeks of vehicle (n=17) or ACY775 (n=17) treatment measured by Dual-energy X-ray absorptiometry (DEXA) scan. DEXA scans were performed in two different cohorts. Glucose tolerance test (GTT) after 1 week of vehicle (n=33) or ACY775 (n=26) treated DIO mice was assessed. Area of curve (AOC) analysis for GTT was performed. Blood glucose (mg/dl) levels after 1 week of vehicle (n=17) or ACY775 (n=16) were assessed in treated DIO mice. Insulin tolerance test (ITT) was performed after 2 weeks of vehicle (n=31) or ACY775 (n=21) treatment of DIO mice. Serum insulin (ng/ml) levels were measured after 3 weeks of vehicle (n=22) or ACY775 (n=21) in treated DIO mice. A homeostatic model assessment of insulin resistance (HOMA-IR) was analyzed after 3 weeks of vehicle (n=14) or ACY775 (n=13) treated DIO mice.
Food intake was analyzed hourly until 3:00 am. […] DEXA scans were performed in two different cohorts.
DIO mice then were treated with ricolinostat (50 mg/kg, i.p.) for 3 weeks. Daily body weight (g), daily food intake (g), serum leptin (ng/ml) levels after 3 weeks of vehicle (n-8) or ricolinostat (n=8) treatment, lean mass (g); fat mass and fat percentage (%) after 3 weeks of vehicle (n=16) or ricolinostat (n=17) treatment measured by DEXA scan were determined.
Blood glucose (mg/dl) levels were measured after 1 week of vehicle (n=16) or ricolinostat (n=16) treated DIO mice. GTT after 1 week of vehicle (n=17) or ricolinostat (n=16) treatment of DIO mice was assessed. AOC analysis for GTT was performed. ITT after 2 weeks of vehicle (n=17) or ricolinostat (n=16) treated DIO mice was measured. Serum insulin (ng/ml) levels after 3 weeks of vehicle (n=8) or ricolinostat (n=8) treatment were measured in DIO mice. Liver sections from 3 weeks of vehicle or ricolinostat treated DIO mice were stained by H&E.
DIO mice then were treated with bavarostat (10 mg/kg, i.p.) for 3 weeks and daily body weight (g) of DIO mice treated with Veh (n=9) or bavarostat (n=9) measured during the three weeks of treatment period. Daily food intake (g) during 3 weeks of Veh or bavarostat treatment was also measured.
ACY1083 was administered to DIO mice as described in Example 3.

Series [2] has as its target HDAC6 (Homo sapiens (Human), UniProt Q9UBN7). The following applies: unit printed as AM; unit of the source corrected; cited from earlier work.
The conditions of series [3]: in vivo; cited from earlier work.
Series [4] concerns DIO mice. In words: Chronic treatment of DIO mice (body weight, food intake, DEXA, glucose homeostasis). Type of series: in vivo. Particulars: 14 days, oral administration.
Series [5] concerns HDAC6 in AgRP neurons. In words: DIO mice with HDAC6 depleted in AgRP neurons (HDAC6^Agrp-Δ). Type of series: in vivo. The following applies: HDAC6^Agrp-Δ versus HDAC6^WT DIO mice. As for the experimental part:
Design, validation, and stereotaxic injection of AAV viral vector carrying the guide RNAs targeting the mouse HDAC6 genomic locus. Three designed sgRNAs were concatenated and constructed into an AAV vector carrying a cre-enabled mCherry fluorescent marker.
Following the bilateral injection of AAV-sgHDAC6 into the arcuate nucleus of Agrp-ires-cre::LSL-Cas9-GFP (Agrp-Cre^+/−::Cas9^+/−) or control LSL-Cas9-GFP (Cas9^+/−) mice, immunostaining to detect the expression of mCherry and GFP was performed. AAV-sg-HDAC6 injected Agrp-Cre^+/−::Cas9^+/− (HDAC6^Agrp-Δ) and Cas9^+/−(HDAC6^WT) DIO mice (n=7 for each group) were fasted for 24 hours, and injected with ACY775 (10 mg/kg. i.p). Hourly total dark cycle food intake (g) (n=7 for each group) of these mice after ACY775 injection was measured. Body weight of AAV-sg-HDAC6 injected HDAC6^Agrp-Δ (n=11) and HDAC6^WT (n=6) mice were measured during 3 weeks of ACY775 (10 mg/kg/day, i.p.) treatment. Daily average food intake of HDAC6^Agrp-Δ (n=11) and HDAC6^WT (n=6) mice was measured during 3 weeks of ACY775 (10 mg/kg/day, i.p.) treatment. 24-hour food intake average of HDAC6^Agrp-Δ and HDAC6^WT mice during the 3 weeks of ACY775 treatment was assessed. Serum leptin level (ng/ml) of HDAC6^Agrp-Δ and HDAC6^WT mice after 2 weeks of ACY775 treatment (n=13 for HDAC6^WT and n=18 for HDAC6^Agrp-Δ) was measured. Lean mass (g); fat mass; and fat percentage (%) of HDAC6^Agrp-Δ and HDAC6^WT DIO mice after 3 weeks of ACY775 treatment was measured by DEXA scan. The HDAC6 inhibitor responsive neurons in the dorsomedial hypothalamus (DMH) were assessed. Immunostaining and quantification of c-Fos expression was performed in the DMH of DIO mice following one-time ACY775 treatment (10 mg/kg, i.p.).

The subject of series [6] is DIO mice. The following applies: diet-induced obese mice; cited from earlier work.
In series [7] the test system is HDAC6-KO DIO mice. Put plainly: Chronic treatment of DIO WT versus HDAC6 KO mice. Particulars: DIO mice. Type of series: in vivo.
Series [8] can be described thus: Brain/plasma ratio and brain or hypothalamus penetration. The following applies: in vivo.

“Also recorded” adds a separate entry of the source.

Chain of HDAC6 (Q9UBN7 whole entry, species assumed): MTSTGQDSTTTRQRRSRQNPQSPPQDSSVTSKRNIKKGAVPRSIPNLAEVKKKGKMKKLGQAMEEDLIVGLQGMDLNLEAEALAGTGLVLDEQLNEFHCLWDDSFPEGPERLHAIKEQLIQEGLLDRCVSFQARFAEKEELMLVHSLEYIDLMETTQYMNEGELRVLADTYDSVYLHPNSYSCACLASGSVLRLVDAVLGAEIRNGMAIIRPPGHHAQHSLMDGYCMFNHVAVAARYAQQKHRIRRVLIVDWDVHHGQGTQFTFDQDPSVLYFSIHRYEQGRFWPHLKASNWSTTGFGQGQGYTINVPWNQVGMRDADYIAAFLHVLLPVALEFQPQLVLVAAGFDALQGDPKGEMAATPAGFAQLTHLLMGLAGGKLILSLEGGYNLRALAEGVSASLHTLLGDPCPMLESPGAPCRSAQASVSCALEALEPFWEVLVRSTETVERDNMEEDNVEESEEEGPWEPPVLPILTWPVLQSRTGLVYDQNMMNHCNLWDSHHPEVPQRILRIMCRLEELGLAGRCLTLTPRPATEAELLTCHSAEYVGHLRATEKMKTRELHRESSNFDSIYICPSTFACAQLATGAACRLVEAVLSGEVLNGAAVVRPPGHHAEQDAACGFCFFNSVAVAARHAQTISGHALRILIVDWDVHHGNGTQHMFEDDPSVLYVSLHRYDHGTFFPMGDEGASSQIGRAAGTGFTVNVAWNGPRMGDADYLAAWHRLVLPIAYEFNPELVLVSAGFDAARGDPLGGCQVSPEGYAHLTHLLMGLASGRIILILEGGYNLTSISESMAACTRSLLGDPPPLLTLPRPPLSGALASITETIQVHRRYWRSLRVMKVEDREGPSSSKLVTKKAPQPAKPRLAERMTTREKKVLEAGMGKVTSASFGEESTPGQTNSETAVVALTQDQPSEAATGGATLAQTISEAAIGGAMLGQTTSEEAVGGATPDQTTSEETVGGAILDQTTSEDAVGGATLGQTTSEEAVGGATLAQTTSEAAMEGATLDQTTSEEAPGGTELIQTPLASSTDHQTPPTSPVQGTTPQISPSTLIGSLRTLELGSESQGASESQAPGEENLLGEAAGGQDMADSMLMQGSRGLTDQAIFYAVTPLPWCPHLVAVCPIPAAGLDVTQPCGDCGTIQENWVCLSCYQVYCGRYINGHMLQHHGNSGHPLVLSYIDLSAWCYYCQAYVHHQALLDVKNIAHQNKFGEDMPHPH

Turning to `O=C(NO)c1cnc(NC2(c3ccccc3)CCC(F)(F)CC2)nc1` [ACY1083], in series [1], the “food intake and total body fat mass (summary)” value is “significant reduction of food intake and total body fat mass”. Moreover, the HDAC6 IC50 in series [2] was 3 nM. Also, the “brain penetrance / BBB permeability” value in series [3] is listed as “brain-penetrating”. In series [4], the body weight result is listed as “significant decrease in body weight; also recorded: reduced body weight”.
For `CN1CCc2c(c3ccccc3n2Cc2ccc(C(=O)NO)cc2)C1` [tubastatin A], in series [5], the “anti-obesity effects on chronic treatment” value is on record as “did not change Tubastatin A's effects on suppressing feeding or body weight”. Moreover, in series [3], the “brain penetrance / BBB permeability” value was “extremely low”. The “anti-obesity effects reported by Cakir et al.” value in series [6] was “reduce food intake, fat mass, hepatic steatosis and improve systemic glucose homeostasis”. Besides, in series [7], the “blood glucose, serum insulin and leptin levels, WT versus HDAC6 KO” value is “all reduced equally in the wt and HDAC6 KO group”; the “fat mass and fat %, WT versus HDAC6 KO” value is “significantly lower in both wt and HDAC6 KO groups”; the “food intake, WT versus HDAC6 KO” value is recorded as “reduced similarly”; the “glucose tolerance and insulin sensitivity (GTT, ITT), WT versus HDAC6 KO” value was “improved glucose tolerance and increased insulin sensitivity in both wt and the HDAC6 KO mice”. Further, in series [7], the “lean mass, WT versus HDAC6 KO” value was “not different”. The “body weight, WT versus HDAC6 KO” value in series [7] (3 weeks, ACY775 10, ACY738 50, Tubastatin A 25 mg/kg/day i.p.) is “reduced the body weight of the HDAC6 KO mice the same as the wt mice”. The “penetrance into the hypothalamus” value in series [8] was “neither of which have high penetrance into the hypothalamus”.
